Laboratory results taken from patent US20230381142A1, “ANTILEISHMANIAL COMPOUNDS, COMPOSITIONS AND USE THEREOF” (TRUSTEES OF BOSTON UNIVERSITY, priority 2022, published 2023).
Where two headings read alike, the source gives them in different places.

Tests used:
[1] = tested on: L. donovani intracellular amastigotes in B10R cells; assay: UCSD L. donovani infection assay (Assay Conditions D); type: cell-based; conditions: B10R cells; for L. donovani amastigotes EC75 (B10R cells): footnote d; for EC50: Leishmania donovani, values marked d, read-out: L. donovani amastigotes EC50 (B10R cells)
Method in brief: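 Compounds, either single-point at 10 μM or 10-point 2-fold series (3 technical, 2 biological replicates), were incubated 72 h at 37° C. with B10R host cells co-seeded with day-7 stationary L. donovani promastigotes (20:1). DAPI-stained nuclei imaging yielded intracellular parasite EC50 and host-cell CC50.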

[2] = tested on: L. braziliensis (strain BA788) in J774 cells; assay: J774 luciferase infection assay (Assay Conditions E); type: cell-based, Leishmania braziliensis
Experimental: Assay Conditions E: J774 cells (ATCC J774A.1 were grown in DMEM supplemented with 10% Fetal Bovine Serum (FBS) and 1% Penicillin-Streptomycin at 37° C. in 5% CO2. Leishmania parasites expressing luciferase and GFP were grown as described in Front. Cell. Infect. Microbiol (2019) 9:237. J774 cells were seeded in microwell plates at 3×10^5 cells/mL density. Cells were washed with PBS and incubated with complete DMEM medium containing stationary phase Leishmania promastigotes (L. major: strain Friedlin; L. braziliensis, strain BA788) at a 1:10 parasite-cell ratio for 24 h. Cells were washed with PBS. Cells and compounds were incubated for 48 h at 37° C. and 5% C02. Compounds were tested in 8-point 2-fold serial dilution in 4 technical replicates, and 2 biological replicates. After 48 h, OneTiterGlo (Promega) (100 μl) was added to each well. Plates were incubated for 15 min and bioluminescence was measured using a plate reader (Molecular Devices). Effective concentration inducing 75% activity (EC75) was calculated using GraphPad Prism Software (version 9.0).

[3] = UCSD infection assay, host cell cytotoxicity (CC50); type: cell-based; conditions: mouse, B10R host cells infected with L. donovani
Experimental: (§1) Assay Conditions D: B10R cells (CVCL_0155) were seeded at 300 cells/well, and L. donovani WT promastigotes in stationary phase (7th day after passage) were added at 6,000 parasites/well (ratio of 20 parasites/cell). Both cells and parasites were seeded in DMEM High-Glucose medium (Gibco, cat. no. 11995065) containing 5% Fetal Bovine Serum (Sigma-Aldrich, cat. no. F2442) and 1% Penicillin-Streptomycin (Gibco, cat. no. 15140122). Cells and parasites were incubated in the presence of the compounds for 72 h at 37° C. and 5% C02. Plates were then fixed with 4% formaldehyde solution for at least 1 h, then washed with 1×PBS and stained with 5 μg/mL DAPI. Plates were read using an ImageXpress microscope (Molecular Devices) and analyzed by MetaXpress software (Molecular Devices) using a custom module optimized for this assay. […] Compounds were tested in a 10-point 2-fold serial dilution in 3 technical replicates, and 2 biological replicates. After 72 h, plates were fixed and stained with DAPI as described above. Images were acquired on an ImageXpress microscope, and analyzed using the MetaXpress custom module.
as §1, with “Compounds were obtained as 0.2 μmoles of dried film for primary single point screening. Each compound was diluted in DMSO to 10 μM final testing concentration. These compounds were tested in 2 biological replicates. The compounds were pre-spotted onto 384-well assay plates in single concentration.” for “Assay Conditions D:”, “CO2.” for “C02.”, “module. The DRCs were plotted, half-effective concentration (EC50) and half-cytotoxic concentration (CC50) were calculated using GraphPad Prism Software, version 6.05 (GraphPad Software, San Diego, CA).” for “module.”

[4] = tested on: L. donovani intracellular amastigotes infecting THP-1 macrophages; assay: GSK intramacrophage L. donovani assay (LD AMMAC, inMac; Assay Conditions C); type: cell-based; conditions: Leishmania donovani
Method in brief: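 EC50 values come from counting amastigotes per infected THP-1 macrophage (AMMAC). Parallel read-outs give percentage of infected cells per well (INFCELL) and a macrophage-number toxicity EC50 (MAC).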

[5] = GSK inMac assay, host cell toxicity readout (LD MAC); type: cell-based, human; conditions: human
Method in brief: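 MAC EC50 reflects THP-1 host cell counts, measured within GSK's inMac L. donovani infection assay that also scores intracellular amastigotes and infected-cell percentage.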

[6] = THP-1 cells, values marked c, read-out: L. donovani amastigotes EC50 (THP-1 cells)
[7] = footnote c, read-out: THP-1 Host Cell CC50
[8] = values marked c: THP-1 cells, read-out: L. donovani amastigotes EC50 (μM, THP-1 or B10R cells)

Compound	L. donovani amastigotes EC75 (μM, B10R cells) [1] [µM]	CC50 at 72 h ([3]; host B10R cells) [µM]	L. donovani amastigotes EC75 (B10R cells) [1] [µM]	CC50 at 72 h ([3]; footnote d) [µM]	CC50 [5, 7] [µM]	also measured
CC(C)Cc1n[nH]c2c1C(c1ccc(Br)cc1F)N(c1ccc(F)nc1)C2=O (stereo not shown) [BUCMD00649]	>10	–	–	–	–	L. braziliensis amastigotes EC75 (μM, J774 cells) [2]: >10 µM
CC(C)Cc1n[nH]c2c1C(c1ccc(F)cc1Br)N(c1ccc(F)nc1)C2=O (stereo not shown) [BUCMD00650]	>10	–	–	–	–	L. braziliensis amastigotes EC75 (μM, J774 cells) [2]: 9.0 µM
Cc1ccccc1C1c2c(CC(C)C)n[nH]c2C(=O)N1c1ccc(F)nc1 (stereo not shown) [BUCMD00651]	6.3	–	–	–	–	L. braziliensis amastigotes EC75 (μM, J774 cells) [2]: >10 µM
Cc1cc(F)ccc1C1c2c(CC(C)C)n[nH]c2C(=O)N1c1cnn(C(C)C)c1 (stereo not shown) [BUCMD00673]	>10	–	–	–	–	L. braziliensis amastigotes EC75 (μM, J774 cells) [2]: >10 µM
COc1ccc(N2C(=O)c3[nH]nc(CC(C)C)c3C2c2ccc(F)cc2Cl)cn1 (stereo not shown) [BUCMD00684]	>10	–	–	–	–	L. braziliensis amastigotes EC75 (μM, J774 cells) [2]: 10.0 µM
COc1ccc(N2C(=O)c3[nH]nc(CC(C)C)c3C2c2ccc(Cl)cc2F)cn1 (stereo not shown) [BUCMD00685]	1.7	–	–	–	–	L. braziliensis amastigotes EC75 (μM, J774 cells) [2]: >10 µM
CC(C)Cc1n[nH]c2c1C(c1ccccc1C(F)(F)F)N(c1ccc(N3CCN(C)CC3)nc1)C2=O (stereo not shown) [BUCMD00723]	10.0	7.94	–	–	–	–
CC(C)Cc1n[nH]c2c1C(c1ccccc1F)N(c1ccc(N3CCN(C)CC3)nc1)C2=O (stereo not shown) [BUCMD00724]	>10	6.31	–	–	–	–
CC(C)Cc1n[nH]c2c1C(c1ccc(F)c(F)c1)N(c1ccc(N3CCN(C)CC3)nc1)C2=O (stereo not shown) [BUCMD00725]	>10	7.94	–	–	–	–
COc1ncc(N2C(=O)c3[nH]nc(CC(C)C)c3C2c2ccc(F)cc2Cl)cc1F (stereo not shown) [BUCMD00730]	–	–	0.6	10	–	–
C#CCCCCn1nc(CC(C)C)c2c1C(=O)N(c1ccc(OC)cc1)C2c1ccc(F)cc1 (stereo not shown) [BUCMD00741]	>10	10	–	–	–	–
COc1ccc(N2C(=O)c3[nH]nc(CC(C)C)c3[C@@H]2c2cccc(C(F)(F)F)c2)cn1 [BUCMD00805]	–	–	1.6	6.31	25.1	EC50 [4, 6]: 5 µM
CC(C)Cc1n[nH]c2c1C(c1ccccc1Cl)N(c1ccc(N(C)C)cc1)C2=O (stereo not shown) [CMLD010920]	–	–	0.3	6.31	7.3	EC50 [1]: 0.3 µM
COc1ccc(N2C(=O)c3[nH]nc(CC(C)C)c3[C@H]2c2ccccc2Br)cn1 [CMLD010977]	1.0	15.8	–	–	–	EC50 [4, 8]: 2 µM; CC50 ([5]; host THP-1 cells): 25.1 µM
CC(C)Cc1n[nH]c2c1C(c1ccc(F)cc1)N(c1ccc(N(C)C)cc1)C2=O (stereo not shown) [CMLD011039]	–	–	0.3	6.31	39.8	EC50 [4, 6]: 1 µM
CC(C)Cc1n[nH]c2c1C(c1ccc(F)cc1)N(c1ccc3c(c1)OCCO3)C2=O (stereo not shown) [CMLD011101]	–	–	1.2	15.8	25.1	EC50 [4, 6]: 3.2 µM
COc1ccc(N2C(=O)c3[nH]nc(CC(C)C)c3C2c2ccc(C)s2)cc1 (stereo not shown) [CMLD011123]	2.5	15.8	–	–	–	EC50 [4, 8]: 5 µM; CC50 ([5]; host THP-1 cells): 20 µM
CC(C)Cc1n[nH]c2c1C(c1cccc(C(F)(F)F)c1)N(c1ccc3c(c1)OCO3)C2=O (stereo not shown) [CMLD011139]	>10	12.6	–	–	–	EC50 [4, 8]: 3.2 µM; CC50 ([5]; host THP-1 cells): 20 µM
CC(C)Cc1n[nH]c2c1C(c1ccccc1Br)N(c1ccc3c(c1)OCC(=O)N3)C2=O (stereo not shown) [CMLD011497]	0.9	6.31	–	–	–	EC50 [4, 8]: 2 µM; CC50 ([5]; host THP-1 cells): 20 µM
COc1ccccc1C1c2c(CC(C)C)n[nH]c2C(=O)N1c1ccc(Br)cc1 (stereo not shown) [CMLD011549]	–	–	0.3	1	1.1	EC50 [1]: 0.2 µM
CC(C)Cc1n[nH]c2c1C(c1ccccc1Br)N(c1ccc(Br)cc1)C2=O (stereo not shown) [CMLD011551]	–	–	0.5	6.31	5	EC50 [1]: 0.4 µM
CC(C)Cc1n[nH]c2c1C(c1c(Cl)cccc1Cl)N(c1ccc(N(C)C)cc1)C2=O (stereo not shown) [CMLD011553]	3.0	5.01	–	–	–	EC50 [4, 8]: 4 µM; CC50 ([5]; host THP-1 cells): 20 µM
COc1ccc(N2C(=O)c3[nH]nc(CC(C)C)c3C2c2ccccc2OC)cc1F (stereo not shown) [CMLD011566]	–	–	0.4	0.316	0.3	EC50 [1]: 0.4 µM
COc1ccc(N2C(=O)c3[nH]nc(CC(C)C)c3C2c2ccccc2OC)cn1 (stereo not shown) [CMLD011567]	–	–	1.2	20	> 20	EC50 [1]: 1.1 µM
COc1ccc(N2C(=O)c3[nH]nc(CC(C)C)c3C2c2ccccc2Br)cc1F (stereo not shown) [CMLD012217]	–	–	0.5	3.98	3	EC50 [1]: 0.4 µM
COc1ccc(N2C(=O)c3[nH]nc(CC(C)C)c3[C@H]2c2ccc(F)cc2)cc1 [CMLD013629]	>10	20	–	–	–	EC50 [4, 8]: 10 µM; CC50 ([5]; host THP-1 cells): 25.1 µM
